Measurements taken from patent US20050124696A1, “Pharmaceutical compositions” (priority 2001, published 2005).

Tests used:
[1] = test system: NF-κB; details: chemical or physiological inducers; 'at the same concentration'; cited from earlier work
[2] = test system: HSF1; details: cited from earlier work
[3] = test system: uninfected cells; experiment: Toxicity to uninfected cells compared with the anti-viral concentration; format: cell-based
[4] = test system: Sendai virus; experiment: Replication of Sendai virus in 37RC cells (HAU titration of virus yield); format: cell-based; details: Respirovirus muris, Sendai virus yield at 24 hours after infection, read-out: ID50 (50% inhibitory dose/concentration)
[5] = test system: NF-κB; experiment: Luciferase activity of resistant HeLa NF-κB-LUC cell pool after stimulation; format: cell-based, human; details: quadruplicate samples, control 1369±149
From the text: (§1) The fragment Kpn I-BamH I from the pGL3 basic vector containing the luciferase gene (PROMEGA) was inserted in the pcDNA3 vector (INVITROGEN) digested with Bgl II-KpnI. (This digestion removes the CMV-promoter from pcDNA3.) The resulting new vector was digested with Kpn I-Hind III and a promoter containing a ‘5×NF-κB binding sites—TATA box’ sequence was inserted upstream of the luciferase gene. This vector has been named STM.
To obtain stable HeLa cell lines expressing the luciferase gene under the control of NF-κB, HeLa cells were transfected (using lipofectamine plus GIBCO) with the STM-Pvu I linearized vector, and selected for 20 days with G418 (800 μg/ml). After selection, the resistant HeLa cell pool was controlled (in quadruplicate samples) for luciferase activity after stimulation with TNFα, IL-1 and TPA. The respective luciferase activities were: • 1) Control: 1369±149 • 2) TNFα: 6111±1231 • 3) IL-1: 11814±1151 • 4) TPA: 7181±444 Clones were selected.

[6] = in vitro; format: cell-based; details: human
Description: HeLa cells were plated in 96-well microtiter plates in 100 μl culture medium (4×10^4/well). After 20 hours, the cells were exposed to the test compounds at different dilutions and incubated for the next 8 h at 37° C. in a 5% CO2 humidified atmosphere. After 6 h incubation, the Alamar Blue was added in an amount equal to 10% of the culture volume (10 μl). Two hours after the addition of the Alamar Blue, the fluorescence was measured using a Victor 1420 microplate reader.
The LC50/μM is the concentration at which the tested compound killed half the cells in this assay.

[7] = test system: NF-κB; experiment: NF-κB-dependent luciferase reporter gene assay in HeLa κB-transformed cells, TPA stimulated; format: cell-based; details: Homo sapiens; HeLa NF-κB-STM luciferase, 8 h treatment, TPA 25 ng/ml 2 h after exposure; read-out: NF-κB; IC50 (concentration at which the tested compound halved the NF-κB activity)
Description: (§2) Method: HeLa cell clone 13B, stably transfected with a luciferase reporter plasmid controlled by the human hsp70 promoter, and HeLa κB-transformed cells, stably transfected with a luciferase reporter plasmid controlled by a synthetic NF-κB-STM construct, were maintained in DMEM medium supplemented with 10% FBS, L-glutamine (2 mM) and G418 (250 μg/ml) at 37° C. in a 5% CO2 humidified atmosphere.
(§3) Cells were seeded at a density of 4×10^4 cells/well in 96-well plates. After 18-20 h, the medium was removed and cells were treated for 8 h with the test compounds (100 μl) at the appropriate dilutions in serum-free medium. For the NF-κB-dependent reporter gene assay, cells were stimulated with TPA (25 ng/ml) 2h after exposure to the compounds.
(§4) After incubation, the medium was removed and cells were lysed in 10 μl of lysis buffer. The luciferase activity was determined by adding 100 μl of substrate and measuring the release of light using a Victor 1420 microplate reader (Wallac, Finland).
as §1, with “This vector has been named STM.” left out

[8] = test system: 37RC cells; experiment: Neutral Red cell viability assay; format: cell-based, monkey; details: uninfected 37RC cells, 24 h
Description: Cell viability was determined using the Neutral Red assay. 37RC cells were seeded at density of 6×10^4 cells/well in 24-well plates and incubated for 24 h. Confluent 37RC monolayers were treated with the test compounds at different dilutions for 24 h at 37° C. After incubation, the medium was removed and the cells were incubated with RPM1 medium containing 40 μg/ml Neutral Red dye (500 μl/well). After 2 h at 37° C., the monolayers were washed with phosphate-buffered saline (PBS) and then with a solution containing 1% CaCl2 and 0.5% formaldehyde. After washing, a solution containing 1% acetic acid/50% ethanol was added to the monolayers (250 μl/well). After 10 min at room temperature, the absorbance was determined with a microplate reader (Victor 1420, Wallac) at 540 nm.

[9] = test system: HSF; experiment: hsp70 promoter luciferase reporter assay in HeLa cell clone 13B (HSF activation); format: cell-based, human; details: HeLa clone 13B, 8 h treatment
Description: as §2, §3, §4
The AC200/μM for HSF is the concentration at which the tested compound doubled the HSF activity in this assay. The IC50/μM for NF-κB is the concentration at which the tested compound halved the NF-κB activity in this assay.

With O=C1C=CCC1 [cyclopent-2-en-1-one] as the compound, how does the “concentration shown to block NF-κB activation” value [1] read?
The value was 125 to 500 µM.

And the “concentration shown to activate HSF1 and trigger synthesis of HSP70” value [2]?
Its value is 125 to 500 µM.

What does the source list for CC(C)(C)[Si](C)(C)OC1CC=CC(=O)C1 (stereo not drawn) [Compound B, 5-tert-butyldimethylsilyloxy-cyclohex-2-en-1-one]?
concentration of anti-viral effect relative to the concentration toxic to uninfected cells [3]: below that at which they were toxic to uninfected cells; IC50 [4]: 0.4 µM

Which “concentration of anti-viral effect relative to the concentration toxic to uninfected cells” value [3] does the source give for CC(C)(C)[Si](C)(C)OC1C=CC(=O)CC1 (stereo not drawn) [Compound A, 4-tert-butyldimethylsilyloxy-cyclohex-2-en-1-one] here?
Its value is “below that at which they were toxic to uninfected cells”.

What about the IC50 [4] of the same compound?
Its IC50 is 1 µM.

With CCCCCCCCCCCCCC(=O)O[C@@H]1[C@@H](C)[C@@]2(O)[C@@H](C=C(CO)C[C@]3(O)C(=O)C(C)=C[C@@H]23)[C@@H]2C(C)(C)[C@]12OC(C)=O [TPA, 12-O-tetradecanoylphorbol-13-acetate] as the compound, how does the “luciferase activity after stimulation” value [5] read?
The value was 7181±444.

Which CC50 at 8 h [6] does the source give for COC(=O)C(CSC1CC(=O)CC(O[Si](C)(C)C(C)(C)C)C1)NC(=O)OC(C)(C)C (stereo not drawn) [CTM-78, 2-tert-Butoxycarbonylamino-3-[3-(tert-butyl-dimethyl-silanyloxy)-5-oxo-cyclohexylsulfanyl]-propionic acid methyl ester] here?
The CC50 at 8 h was over 800 µM.

And the IC50 [7]?
The IC50 was 22 µM.

What about the IC50 [4] of the same compound?
Its IC50 is 3 µM.

And the “LD50 (50% lethal dose/concentration)” value [8]?
The value was 18.6 µM.

And the “HSF; AC200 (concentration at which the tested compound doubled the HSF activity)” value [9]?
The value was 45 µM.

For COC(=O)[C@H](CS[C@H]1CC(=O)CC[C@@H]1O[Si](C)(C)C(C)(C)C)NC(=O)OC(C)(C)C [CTM-68, 2-tert-Butoxycarbonylamino-3-[2-(tert-butyl-dimethyl-silanyloxy)-5-oxo-cyclohexylsulfanyl]-propionic acid methyl ester], which CC50 at 8 h [6] is on record?
Its CC50 at 8 h is over 800 µM.

And the IC50 [7]?
Its IC50 is 17 µM.

What about the IC50 [4] of the same compound?
Its IC50 is 1 µM.

What about the “LD50 (50% lethal dose/concentration)” value [8] of the same compound?
Its value is 9.8 µM.

What about the “HSF; AC200 (concentration at which the tested compound doubled the HSF activity)” value [9] of the same compound?
Its value is 98 µM.

For TNFα, which “luciferase activity after stimulation” value [5] is on record?
Its value is 6111±1231.
